BindingDB's records for patent US10155727 (Janssen Pharmaceuticals, 2018)

Biological target: Glutamate receptor ionotropic, NMDA 2B (Rattus norvegicus, UniProt P35439+Q00960)
Test: Inhibition of Specific Binding to the Rat NR1/NR2B Receptor
Protocol: After thawing on the day of the assay, a 5 ml membrane aliquot was centrifuged at 48000 g for 30 min at 4° C. The pellet was resuspended in 5 ml of 5 mM Tris/1 mM EDTA buffer, pH 7.4, homogenized for 30 sec at 20000 rpm with an Ultraturrax and centrifuged at 48000 g for 30 min at 4° C. This was repeated twice. […] Nonspecific binding was estimated in the presence of […]. The samples were incubated for 60 min. at 4° C.The incubation was terminated by filtration of the membrane preparations using Filtermat B (Pharmacia, Uppsala Sweden) and a Micro Cell Harvester (Skatron, Lier, Norway). The Filtermat B had been presoaked with 1% polyethylene imine and carefully washed with 50 mM Tris/HCl-buffer pH 7.7 after the filtration to separate free and bound radioactivity. […] For pipetting of the incubation mixture the robot Biomek2000 (Fa. Beckman) was used.

Chain of Glutamate receptor ionotropic, NMDA 2B (Q00960 whole entry, one chain of several): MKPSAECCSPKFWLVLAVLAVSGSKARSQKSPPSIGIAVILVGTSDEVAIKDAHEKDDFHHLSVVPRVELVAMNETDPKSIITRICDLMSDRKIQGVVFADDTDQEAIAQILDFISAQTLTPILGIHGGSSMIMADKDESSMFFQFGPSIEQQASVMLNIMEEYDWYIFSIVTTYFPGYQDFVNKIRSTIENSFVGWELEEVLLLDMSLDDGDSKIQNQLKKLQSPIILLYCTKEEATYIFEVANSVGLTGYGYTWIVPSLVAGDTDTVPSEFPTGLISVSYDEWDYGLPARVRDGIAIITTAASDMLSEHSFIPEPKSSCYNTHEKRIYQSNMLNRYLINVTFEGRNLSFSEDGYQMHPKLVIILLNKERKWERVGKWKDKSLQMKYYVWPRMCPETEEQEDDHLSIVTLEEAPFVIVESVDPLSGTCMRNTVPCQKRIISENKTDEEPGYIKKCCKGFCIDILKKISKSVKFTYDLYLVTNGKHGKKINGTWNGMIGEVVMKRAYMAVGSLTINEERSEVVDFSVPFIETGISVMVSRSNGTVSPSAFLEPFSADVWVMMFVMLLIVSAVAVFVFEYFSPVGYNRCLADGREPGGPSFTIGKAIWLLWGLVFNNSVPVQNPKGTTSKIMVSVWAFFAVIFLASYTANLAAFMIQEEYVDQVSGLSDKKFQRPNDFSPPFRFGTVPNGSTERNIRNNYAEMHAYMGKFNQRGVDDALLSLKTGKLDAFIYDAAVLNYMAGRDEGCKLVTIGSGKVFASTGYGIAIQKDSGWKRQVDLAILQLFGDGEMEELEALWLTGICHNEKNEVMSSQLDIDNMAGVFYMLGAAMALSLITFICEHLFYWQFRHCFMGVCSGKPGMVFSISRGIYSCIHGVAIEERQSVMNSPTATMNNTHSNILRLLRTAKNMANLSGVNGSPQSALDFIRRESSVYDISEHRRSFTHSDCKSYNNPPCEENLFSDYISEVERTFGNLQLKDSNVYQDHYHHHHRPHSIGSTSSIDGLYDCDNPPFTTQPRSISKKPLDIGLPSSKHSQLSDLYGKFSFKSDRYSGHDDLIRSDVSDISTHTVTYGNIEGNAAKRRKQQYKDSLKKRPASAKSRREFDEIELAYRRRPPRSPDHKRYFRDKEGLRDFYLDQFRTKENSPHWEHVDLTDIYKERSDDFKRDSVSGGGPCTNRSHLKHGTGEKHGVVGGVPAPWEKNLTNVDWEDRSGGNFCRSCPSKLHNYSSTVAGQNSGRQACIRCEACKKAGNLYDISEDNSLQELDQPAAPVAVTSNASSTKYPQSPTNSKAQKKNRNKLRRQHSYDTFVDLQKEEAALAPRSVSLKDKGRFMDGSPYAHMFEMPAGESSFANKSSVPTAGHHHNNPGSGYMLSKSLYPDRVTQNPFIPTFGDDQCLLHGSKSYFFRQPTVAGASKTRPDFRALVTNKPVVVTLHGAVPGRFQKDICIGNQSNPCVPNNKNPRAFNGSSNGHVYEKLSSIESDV

SMILES	IC50
Cc1cc(Cn2cc(-c3ccc(C(F)(F)F)cc3)cn2)n(C)n1 [US10155727, Example 51]	9.21 µM
Cn1ccc(Cn2cc(-c3cccc(C(F)(F)F)c3)cn2)n1 [US10155727, Example 49]	2.25 µM
